Data taken from ChEMBL document CHEMBL3301464, “MMV Malaria Box anti-babesial screening”.

Assays:
[1] = (§1) MMV: Anti-babesial activity assay. Parasite pRBCs at 1% parasitemia were cultivated in 100 ul with 96-well plates at 2.5% and 5% hematocrits. The parasites were cultivated in triplicate for 4 days without replacement of the medium for each concentration of the compound.; format: functional, Babesia bovis
[2] = as §1; format: functional, Babesia bigemina
[3] = as §1; format: functional, Babesia equi
[4] = as §1; format: functional, Babesia caballi

SMILES	IC50 [1] [µM]	IC50 [2] [µM]	IC50 [3] [µM]	IC50 [4] [µM]
Cc1ccc(-c2nc3ccccc3o2)cc1NCc1cc(Cc2ccccc2)ccc1O	7.13	1	9.67	1.05
OC1=C2C(=Nc3ccccc3SC2c2ccc(Br)cc2)c2ccccc21 (stereo not drawn)	11.1	15.2	12	7.95
O=C(CSc1ccc2nnc(-c3cccc(F)c3)n2n1)Nc1ccc2c(c1)OCO2	11.9	20.2	12.9	18.2
CCCCCCn1c(=N)n(CC(O)COc2cccc(C)c2)c2ccccc21 (stereo not drawn)	0.083	2.95	3.73	15.9
c1ccc(-c2ccc(-c3nc4ccccc4[nH]3)cc2)cc1	25	10	10	14.8
Cc1ccc2nc(C)cc(Nc3cccc(C(F)(F)F)c3)c2c1	6.31	17.5	5.5	6.72
CCOc1ccc(-n2cc(-c3ccccc3)c3c(SCc4cc(C)ccc4C)ncnc32)cc1	14.6	10.7	13.9	16.5
O=C(Nc1ccc(N2CCN(Cc3ccccc3)CC2)cc1)c1cccs1	1.87	8.47	3.32	0.08
CCOC(=O)c1c(C)n(-c2ccccc2)c2ccc(OC(=O)c3cc(OC)c(OC)c(OC)c3)cc12	18.6	12.6	16.5	5.9
CCC(c1ccccc1)c1nn2c(-c3cccs3)nnc2s1 (stereo not drawn)	18.6	16.4	7.87	15.8
c1ccc(CNc2nc(Nc3ccccc3)nc3ccccc23)cc1	4.06	10	2.12	3.73
COc1ccc(C(=O)C(CCC(CNC(C)(C)C)C(=O)c2ccc(OC)cc2)CNC(C)(C)C)cc1 (stereo not drawn)	0.57	2.95	0.17	4.68
COc1ccc2c(c1)C1(Nc3ccccc3-c3nc4ccccc4n31)C(=O)N2 (stereo not drawn)	16.8	14.2	3.52	3.9
COc1ccc(C=C2SC(Nc3ccc(F)cc3)=NC2=O)c(OC)c1	0.1	0.082	4.61	0.836
COc1ccc(C2Sc3ccccc3N=C3C2=C(O)c2ccccc23)cc1 (stereo not drawn)	13.9	4.09	15.8	7.09
CC(Oc1ccc(NC(=O)c2cccs2)cc1)C(=O)c1ccc(Cl)cc1 (stereo not drawn)	0.1	0.081	13.3	0.29
COc1ccccc1C(=O)ON=C(N)Cc1cccc2ccccc12	22.4	19.8	7.65	6.86
O=C(Nc1ccc(-c2nc3cc(NC(=O)c4ccc(Cl)cc4)ccc3[nH]2)cc1)c1ccc(Cl)cc1	17	5.09	13.3	9.1
O=C(Nc1ccc(C23CC4CC(CC(c5ccccc5)(C4)C2)C3)cc1)c1cccs1	8.1	10.4	15.2	16.8
CCN(CC)CCNc1ncnc2c1[nH]c1ccc(Cl)cc12	17.6	16.2	3.42	2.64
O=C(NCc1ccco1)C1CCN(S(=O)(=O)c2ccc(Br)cc2)CC1	17	> 25	14.3	> 25

SMILES	IC50 [1] [µM]	IC50 [2] [µM]	IC50 [3] [µM]	IC50 [4] [µM]
CN1CCN(c2c3c(c(C#N)c4nc5ccccc5n24)CCC3)CC1	13.3	19.2	8.25	> 25
OC(CNCC1CCCO1)Cn1c2ccc(Cl)cc2c2cc(Cl)ccc21 (stereo not drawn)	21.1	0.79	11.9	10
CC(C)CNC(=O)c1c(N)n(CCc2ccccc2F)c2nc3ccccc3nc12	10	7.67	13.3	1
CCOc1cc2c(cc1OCC)C(c1cc(Cl)ccc1O)NCC2 (stereo not drawn)	1.06	10	1.4	0.33
O=C(NC1CCN(Cc2ccccc2)CC1)c1cc(-c2ccncc2)nc2ccc(Cl)cc12	3.99	7.3	0.39	0.076
Cc1cc(N2CCCC2)nc(Nc2ccc(NC(=O)CCc3ccccc3)cc2)n1	15.5	13.4	3.02	3.53
CN1CCN(c2nc(Nc3ccc(O)cc3)nc3ccccc23)CC1	16.8	10.2	15.6	9
CCCCNCC(O)(c1ccc(Cl)cc1)c1ccc(Cl)cc1	15.5	0.078	1	5.35
COc1cc(CNCCc2ccc(Cl)cc2)cc(OC)c1O	10	5.81	12.6	6.85
OC(CNC1CCCCC1)Cn1c2ccc(I)cc2c2cc(I)ccc21 (stereo not drawn)	1.3	16.5	2.17	3.73
COc1ccc(NC(=O)C2c3ccccc3C(=O)N(CC(C)C)C2c2cccs2)cc1Cl (stereo not drawn)	3.15	2.52	6.87	4.69
CN(N=O)C1=C(NC2CCCCC2)C(=O)c2ccccc2C1=O	0.59	4.13	0.76	0.41
COc1ccc(CNC(=O)c2cc3c(=O)n4ccccc4nc3n(CCc3ccccc3)c2=N)cc1	0.1	4.27	4.74	0.686
COc1cc(C(=O)ON=C(N)Cc2cccc3ccccc23)cc(OC)c1OC	13.3	12.5	10.1	5.3
CCOC(=O)C1=CN(C)C=C(C(=O)OCC)C1c1cc(Br)c(OCC)c(OC)c1	0.091	0.1	14.1	2.63
Cc1ccc(OCCCCCCNCCO)c(C)c1	12.1	9.88	5.09	13.3
CCc1c(C)c(=N)c2ccccc2n1C	18.4	3.42	7.23	0.26
COc1ccc(C(=O)NC(c2ccccc2Cl)c2cc(Cl)c3cccnc3c2O)cc1 (stereo not drawn)	0.19	15.9	0.42	17.5
Cc1ccc(Cl)cc1N1CCN(CCCNC(=O)C2CCN(c3nc4ccccc4[nH]3)CC2)CC1	3.03	2.4	4.77	1
COc1cccc(C(=O)Nc2ccc(-c3nc4ccccc4[nH]3)cc2)c1	1	4.77	7.38	4.89
CCOc1ccc2c(c1)CN(Cc1ccc(Cl)cc1)CO2	0.26	13.3	7.54	10.7

SMILES	IC50 [1] [µM]	IC50 [2] [µM]	IC50 [3] [µM]	IC50 [4] [µM]
COc1ccc(-c2nc3cc(Cc4ccc5[nH]c(-c6ccc(OC)cc6)nc5c4)ccc3[nH]2)cc1	5.58	7.5	8.12	3.21
Cc1ccc(Nc2nc(N)c3ccccc3n2)cc1Cl	6.31	9.87	16.5	10
Oc1ccc(C(=C(Cl)Cl)c2ccc(O)cc2)cc1	15.9	> 25	13.8	21.1
COc1ccc(C2N(C)c3ccccc3N2C)cc1	4.77	2.16	7.89	4.6
Cc1c(C)n(Cc2ccc(F)cc2)c2ccc(C(=O)NCc3ccco3)cc12	24.7	0.288	15.8	10
FC(F)(F)c1ccc(Nc2nnnc3ccccc23)cc1	25	7.18	10	13.4
CCN(CC)CCNc1ncnc2c1[nH]c1ccc(Br)cc12	1	3.03	4.6	4.19
COc1ccc(C(C)=O)cc1N1C(=O)C2C(C1=O)C1(c3ccccc3)C(=O)C2(c2ccccc2)C(c2ccc(C)cc2)=C1c1ccc(C)cc1 (stereo not drawn)	17.5	15.5	16.9	8.46
O=C(CCl)NCCOc1ccc(Cl)cc1Cl	16.5	13.1	16.5	12
COc1cc(SC)ccc1C(=O)N1CCCC(C)C1 (stereo not drawn)	19.4	> 25	5.79	12.3
CCc1ccc(CNCC(O)c2ccccc2)cc1 (stereo not drawn)	11.1	7.65	15.2	4.13
CC1CC(C)CN(C(=O)c2ccc(Cl)cc2Cl)C1 (stereo not drawn)	6.8	14.7	19.4	3.9
Nc1ccn([C@@H]2O[C@H](CO)[C@@H](O)[C@H]2O)c(=O)n1 [CYTIDINE]	7.31	19.1	14.1	4.27
CCOC(=O)C1CCN(C(=O)CN2C(=O)c3ccccc3C2c2c[nH]c3ccccc23)CC1 (stereo not drawn)	> 25	25	4.19	5.35
CCOc1cc(Cl)c(C(C)NC(=O)c2ccccc2)cc1OCC (stereo not drawn)	> 25	4.19	10	12.4
COc1ccc(CNC2CCN(c3ccc(NC(=O)c4cccc(Cl)c4)cc3)CC2)cc1OC	0.1	0.85	0.309	12.4
COCCn1c(C)nc2ccccc2c1=O	14.3	14.7	12.9	13.9
CCOC(=O)C1(Cc2ccccc2)CCN(Cc2cccc(OC)c2O)CC1	1.2	13.2	15.2	1.39
CN(C)c1ccc(N2C(N)=NC(N)=NC2(C)C)cc1	1	12.9	10.1	5.06
O=C(Nc1ccc(-c2nc3ccccc3[nH]2)cc1)c1ccc(Cl)c(Cl)c1	18.5	4.13	6.24	3.86
